Laboratory results taken from US12247216B2, “Pluripotent cell aggregates and use thereof” (ALEPH FARMS LTD., priority 2019, dated 2025).

Test system: bESC lines Alp 0501 and Alp 0505
Assay: bESC differentiation to mesoderm, qPCR of Oct4 and Brachyury
Type: cell-based, bovine
Conditions: 8 μM CHIR 99021 added to Essential 6 medium, aggregates expanded three days, FIG. 5
Description: Quantitative PCR (qPCR) analysis was performed as follows: • 1. Total RNA was extracted from the cells using GeneJET RNA purification kit (Thermo Fisher Scientific). • 2. Reverse transcription was carried out with RevertAid First Strand cDNA Synthesis Kit (Thermo Fisher Scientific). 3. Quantitative PCR (qPCR) was performed to analyze expression of specific genes using specific primers designed for use in probe-based detection method. • 4. All expression data were normalized to beta-actin. Relative quantification of fold change was calculated using the comparative Ct (ΔΔCt) method. Initial differentiation of bESC to mesoderm: • 1. Cells were harvested and seeded for aggregates formation in 6-well plates as detailed in example 4 below. • 2. The initial conditions were: • a. bESC in the growth medium mTeSR1 (StemCell technologies) • b. bESC in the growth medium Essential 8 (Thermo Fisher Scientific) • 3. Four days after seeding, the medium was replaced to form the following conditions: • a. Medium of bESC aggregates formed in mTeSR1 remained. • b. Medium of bESC aggregates formed in Essential 8 medium was replaced to Essential 6 medium (Thermo Fisher Scientific) • Or— • c. Medium of bESC aggregates formed in Essential 8 medium was replaced to Essential 6 supplemented with 8 μM CHIR 99021. • 4. […]

Cc1cnc(-c2cnc(NCCNc3ccc(C#N)cn3)nc2-c2ccc(Cl)cc2Cl)[nH]1 [CHIR 99021, 6-[[2-[[4-(2,4-Dichlorophenyl)-5-(5-methyl-1H-imidazol-2-yl)-2-pyrimidinyl]amino]ethyl]amino]-3-pyridinecarbonitrile]
Brachyury expression (initial mesoderm marker): increase | Oct4 expression (pluripotency marker): additional decrease
